Source: ChEMBL document CHEMBL5465560, “Selectivity Literature for EUbOPEN Chemogenomic Library” (2024)

What was measured:
[1] = target: T1, Mitogen-activated protein kinase kinase kinase 12 (Homo sapiens) (UniProt Q12852); assay: Selectivity interaction (Ambit KINOMEscan and KiNATiv profiling in Jurkat cells) EUB0000090b MAP3K12; format: cell-based; conditions: at 1 µM
T1 sequence (whole entry): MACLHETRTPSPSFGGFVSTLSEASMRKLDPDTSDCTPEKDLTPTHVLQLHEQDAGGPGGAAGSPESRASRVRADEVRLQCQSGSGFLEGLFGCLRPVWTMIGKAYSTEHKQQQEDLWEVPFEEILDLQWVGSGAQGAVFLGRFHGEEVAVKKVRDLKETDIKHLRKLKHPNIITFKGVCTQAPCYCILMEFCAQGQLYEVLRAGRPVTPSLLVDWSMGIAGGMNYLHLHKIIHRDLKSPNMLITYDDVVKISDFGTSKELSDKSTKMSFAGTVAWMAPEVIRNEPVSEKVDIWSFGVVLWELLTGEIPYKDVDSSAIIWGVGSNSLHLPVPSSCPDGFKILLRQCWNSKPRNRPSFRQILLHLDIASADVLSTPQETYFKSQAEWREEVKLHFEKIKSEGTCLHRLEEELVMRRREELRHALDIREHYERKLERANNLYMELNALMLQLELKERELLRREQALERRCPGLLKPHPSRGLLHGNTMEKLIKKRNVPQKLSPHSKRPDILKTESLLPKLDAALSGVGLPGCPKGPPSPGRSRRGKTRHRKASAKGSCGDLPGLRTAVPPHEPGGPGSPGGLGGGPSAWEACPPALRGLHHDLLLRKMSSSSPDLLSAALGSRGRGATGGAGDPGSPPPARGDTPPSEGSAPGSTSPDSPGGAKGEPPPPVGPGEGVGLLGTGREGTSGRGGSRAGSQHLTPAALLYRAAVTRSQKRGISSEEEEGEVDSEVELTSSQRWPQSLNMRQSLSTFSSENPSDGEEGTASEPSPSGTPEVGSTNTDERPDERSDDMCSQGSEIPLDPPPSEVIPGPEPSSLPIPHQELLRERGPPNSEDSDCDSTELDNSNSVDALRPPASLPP

[2] = target: DNA (cytosine-5)-methyltransferase 3A (Homo sapiens) (UniProt Q9Y6K1); assay: Selectivity interaction (Methyltransferase screen (Scintillation proximity assays)) EUB0000255b DNMT3A
Sequence of DNA (cytosine-5)-methyltransferase 3A (Homo sapiens) (Q9Y6K1 whole entry, looked up): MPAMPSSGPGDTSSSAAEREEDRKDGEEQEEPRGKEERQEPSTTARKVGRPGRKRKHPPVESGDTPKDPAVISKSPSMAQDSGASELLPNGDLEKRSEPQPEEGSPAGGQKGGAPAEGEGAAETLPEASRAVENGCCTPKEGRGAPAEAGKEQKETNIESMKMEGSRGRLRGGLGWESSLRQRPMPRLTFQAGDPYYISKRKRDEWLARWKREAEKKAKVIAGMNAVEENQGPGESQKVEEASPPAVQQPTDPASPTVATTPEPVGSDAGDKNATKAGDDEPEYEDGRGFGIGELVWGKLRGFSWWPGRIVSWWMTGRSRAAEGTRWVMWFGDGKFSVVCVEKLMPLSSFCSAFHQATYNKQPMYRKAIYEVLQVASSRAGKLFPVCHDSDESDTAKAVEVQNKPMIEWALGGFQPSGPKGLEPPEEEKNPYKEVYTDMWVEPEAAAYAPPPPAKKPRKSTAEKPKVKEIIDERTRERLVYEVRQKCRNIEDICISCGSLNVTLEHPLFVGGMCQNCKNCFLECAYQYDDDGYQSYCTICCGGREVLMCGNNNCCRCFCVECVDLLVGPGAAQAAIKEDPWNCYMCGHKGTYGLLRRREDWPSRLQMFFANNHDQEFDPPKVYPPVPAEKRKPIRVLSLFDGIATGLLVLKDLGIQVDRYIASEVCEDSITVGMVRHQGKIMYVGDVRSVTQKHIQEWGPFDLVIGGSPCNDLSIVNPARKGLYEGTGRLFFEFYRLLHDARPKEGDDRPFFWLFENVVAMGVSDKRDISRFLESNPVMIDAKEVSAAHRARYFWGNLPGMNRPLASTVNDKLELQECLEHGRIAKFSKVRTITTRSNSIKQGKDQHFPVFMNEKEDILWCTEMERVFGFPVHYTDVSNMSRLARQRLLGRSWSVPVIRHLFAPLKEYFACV

[3] = target: T2, Cyclin-dependent kinase 11A (Homo sapiens) (UniProt Q9UQ88); assay: Selectivity interaction (KinomeScan (DiscoverX)) EUB0000045b CDK11A
T2 sequence (whole entry): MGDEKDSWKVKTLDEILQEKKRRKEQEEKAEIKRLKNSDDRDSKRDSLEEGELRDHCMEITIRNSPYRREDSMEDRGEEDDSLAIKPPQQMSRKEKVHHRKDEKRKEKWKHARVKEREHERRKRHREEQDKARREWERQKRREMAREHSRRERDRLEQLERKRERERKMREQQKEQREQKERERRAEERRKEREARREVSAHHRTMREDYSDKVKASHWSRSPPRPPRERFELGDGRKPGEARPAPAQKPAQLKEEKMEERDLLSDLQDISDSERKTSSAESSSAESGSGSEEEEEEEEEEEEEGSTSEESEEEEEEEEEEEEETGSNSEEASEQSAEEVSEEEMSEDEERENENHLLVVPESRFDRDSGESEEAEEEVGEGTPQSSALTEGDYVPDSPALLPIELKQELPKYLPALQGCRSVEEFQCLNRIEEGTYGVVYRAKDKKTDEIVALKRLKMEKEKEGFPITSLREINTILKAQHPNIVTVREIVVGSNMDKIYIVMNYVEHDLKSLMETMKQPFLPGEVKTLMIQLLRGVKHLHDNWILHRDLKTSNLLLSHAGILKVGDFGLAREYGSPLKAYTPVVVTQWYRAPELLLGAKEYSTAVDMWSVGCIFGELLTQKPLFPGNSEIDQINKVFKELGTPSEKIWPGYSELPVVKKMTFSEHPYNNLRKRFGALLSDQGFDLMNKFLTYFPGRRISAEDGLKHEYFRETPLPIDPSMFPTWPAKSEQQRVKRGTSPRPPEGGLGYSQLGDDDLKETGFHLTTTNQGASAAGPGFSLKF

[4] = target: Cyclin-dependent kinase 18 (Homo sapiens) (UniProt Q07002); assay: Selectivity interaction (ActivX KiNativ screen (kinase selectivity in THP-1 cell lysates)) EUB0000639a CDK18; format: subcellular; conditions: lysate, at 1 µM
Sequence of Cyclin-dependent kinase 18 (Homo sapiens) (Q07002 whole entry): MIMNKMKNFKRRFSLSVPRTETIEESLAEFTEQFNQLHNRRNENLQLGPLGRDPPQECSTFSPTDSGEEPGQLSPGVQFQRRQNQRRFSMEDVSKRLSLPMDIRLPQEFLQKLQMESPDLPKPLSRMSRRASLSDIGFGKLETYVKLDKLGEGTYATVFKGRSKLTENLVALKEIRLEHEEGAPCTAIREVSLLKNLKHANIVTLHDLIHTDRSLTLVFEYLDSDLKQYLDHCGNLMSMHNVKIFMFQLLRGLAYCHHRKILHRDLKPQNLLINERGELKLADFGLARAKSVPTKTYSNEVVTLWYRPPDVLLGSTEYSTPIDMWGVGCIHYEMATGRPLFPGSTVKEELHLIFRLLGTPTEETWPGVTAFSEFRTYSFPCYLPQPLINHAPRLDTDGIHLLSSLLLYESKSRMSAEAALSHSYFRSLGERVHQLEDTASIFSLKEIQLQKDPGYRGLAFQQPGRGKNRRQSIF

[5] = target: Mitogen-activated protein kinase kinase kinase 10 (Homo sapiens) (UniProt Q02779); assay: Selectivity interaction (KinomeScan (DiscoverX)) EUB0001049a MAP3K10; conditions: at 1 µM
Sequence of Mitogen-activated protein kinase kinase kinase 10 (Homo sapiens) (Q02779 whole entry, looked up): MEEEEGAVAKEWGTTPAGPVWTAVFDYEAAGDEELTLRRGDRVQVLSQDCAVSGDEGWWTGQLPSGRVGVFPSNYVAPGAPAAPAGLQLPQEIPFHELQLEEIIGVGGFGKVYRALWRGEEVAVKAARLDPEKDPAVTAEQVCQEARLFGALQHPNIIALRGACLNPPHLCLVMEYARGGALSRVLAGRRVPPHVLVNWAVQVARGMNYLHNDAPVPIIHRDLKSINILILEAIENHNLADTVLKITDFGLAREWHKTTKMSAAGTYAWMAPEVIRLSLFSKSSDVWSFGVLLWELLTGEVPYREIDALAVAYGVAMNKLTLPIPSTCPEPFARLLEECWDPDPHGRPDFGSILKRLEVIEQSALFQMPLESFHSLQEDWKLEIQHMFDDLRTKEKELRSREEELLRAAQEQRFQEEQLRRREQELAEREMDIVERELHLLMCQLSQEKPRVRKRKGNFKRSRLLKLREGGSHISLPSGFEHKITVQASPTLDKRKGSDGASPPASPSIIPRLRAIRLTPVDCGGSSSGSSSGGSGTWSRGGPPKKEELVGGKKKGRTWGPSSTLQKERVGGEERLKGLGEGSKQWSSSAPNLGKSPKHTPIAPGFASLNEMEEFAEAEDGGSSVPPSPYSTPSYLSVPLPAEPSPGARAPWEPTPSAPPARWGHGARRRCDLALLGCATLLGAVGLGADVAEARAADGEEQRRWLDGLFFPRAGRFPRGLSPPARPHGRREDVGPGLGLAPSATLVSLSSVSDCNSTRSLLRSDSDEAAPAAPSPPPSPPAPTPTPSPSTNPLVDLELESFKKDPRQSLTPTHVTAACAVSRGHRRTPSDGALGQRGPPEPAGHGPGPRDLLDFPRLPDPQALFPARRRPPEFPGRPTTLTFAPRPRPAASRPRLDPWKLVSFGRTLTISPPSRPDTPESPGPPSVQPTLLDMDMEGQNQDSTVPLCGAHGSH

[6] = target: T3, G protein-coupled receptor kinase 3 (Homo sapiens) (UniProt P35626); assay: Selectivity interaction (Kinase panel (Z-LYTE Assay)) EUB0001632a ADRBK2; conditions: at 10 µM
T3 sequence (whole entry): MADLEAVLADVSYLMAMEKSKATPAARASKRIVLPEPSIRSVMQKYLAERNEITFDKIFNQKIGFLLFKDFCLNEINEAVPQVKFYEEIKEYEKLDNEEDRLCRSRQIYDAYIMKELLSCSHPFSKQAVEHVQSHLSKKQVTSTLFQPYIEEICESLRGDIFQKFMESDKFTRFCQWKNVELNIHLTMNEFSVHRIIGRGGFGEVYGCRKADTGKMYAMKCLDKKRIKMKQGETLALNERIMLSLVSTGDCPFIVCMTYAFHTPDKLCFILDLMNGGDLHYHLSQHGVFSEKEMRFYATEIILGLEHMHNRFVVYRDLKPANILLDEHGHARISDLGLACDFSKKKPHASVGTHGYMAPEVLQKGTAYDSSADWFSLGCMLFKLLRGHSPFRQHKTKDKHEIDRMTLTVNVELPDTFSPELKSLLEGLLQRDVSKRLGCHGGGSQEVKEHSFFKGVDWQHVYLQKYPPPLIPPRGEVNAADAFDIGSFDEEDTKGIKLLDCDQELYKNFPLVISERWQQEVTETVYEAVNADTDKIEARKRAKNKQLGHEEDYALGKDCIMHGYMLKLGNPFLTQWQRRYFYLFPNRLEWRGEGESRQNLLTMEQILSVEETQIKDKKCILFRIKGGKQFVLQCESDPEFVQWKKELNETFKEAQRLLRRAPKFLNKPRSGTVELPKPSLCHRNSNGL

Molecule `CN(C)C/C=C/C(=O)Nc1ccc(C(=O)N2CCCC(Nc3ncc(Cl)c(-c4c[nH]c5ccccc45)n3)C2)cc1` (stereo not drawn) has a % of control [1] of 89%.

`COCCN1CCC(c2cc(CN(C)C(=O)c3cccc(Oc4ccccc4)c3)ccn2)CC1` gave a % activity ([2]; at 1 µM) greater than 95% and a % activity ([2]; at 10 µM) greater than 85%.

Molecule `C=CC(=O)Nc1cc(-n2c(=O)ccc3cnc4ccc(-c5ccc(NS(C)(=O)=O)cc5)cc4c32)ccc1C` has a % of control ([3]; at 1 µM) of 90% and a % of control ([3]; at 10 µM) of 44%.

For `CC[C@@H]1[C@H](F)C(=O)N[C@@H]1COc1nccc2cc(C(N)=O)c(OC)cc12` [ZIMLOVISERTIB], the % of inhibition [4] was 3.9%.

In the case of `COc1cc(Nc2nc(C)cc(-c3cnn4nc(OC)ccc34)n2)cc(C(F)(F)F)c1`, the % of control [5] is reported as 100%.

Work on `Cn1cc(-n2cnc3c(NCc4nc5cc(Cl)c(Cl)cc5[nH]4)nc(N4CCOCC4)nc32)cn1` yielded a % of control [6] of -1.17%.
